Here are results for one substance from patent US20210238197A1, “NOVEL OXOQUINOLIZINE COMPOUNDS FOR THE TREATMENT AND PROPHYLAXIS OF BACTERIAL INFECTION” (Hoffmann-La Roche Inc., priority 2018, published 2021).

Series [1] deals with multiple species and strains. Description: microbe, parasite or virus in culture. More on the design: MIC S9 / MIC S7 / MIC S11 / MIC S8 / MIC S10: unit not given beside the values. Put shortly:
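Broth microdilution per CLSI M07-A10 in CAMHB, CAMHB+3% lysed horse blood or HTM. Inoculum was set to OD600 ~0.1, then diluted 1:280 (Gram-positive) or 1:400 (Gram-negative), and plates were incubated 18-24 h at 35±2° C in ambient air. MIC (μg/mL) is the lowest concentration giving no visible growth.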

The test system of a further series is HepG2 cells. Description: Cytotoxicity assay (HepG2, CellTiter-Blue). The format is cell-based. Summed up: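 HepG2 cells exposed to compounds for 3 days. Viability read on day 3 by CellTiter-Blue fluorescence after 3 h at 37° C. CC50 obtained from a four-parameter logistic fit.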
Background: Alamar Blue is a resazurin reagent that responds to reducing activity.

Series [2] deals with K. pneumoniae (ATCC10031). Kind of series: 50% growth inhibitory concentration (IC50) determination assay, K. pneumoniae. Type of series: cell-based. The settings on record: Iso-Sensitest broth, growth by OD 600 nm over 16 h; <0.098 = detection limit. Summed up:
(§1)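 Compounds two-fold diluted from 50 to 0.097 μM (final) in Iso-Sensitest broth, inoculum ~5×10^5 CFU/mL. Incubation at 35±2 °C with OD600 read every 20 min over 16 h to track growth.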

For a further series, the system named is S. aureus (ATCC29213). Description: 50% growth inhibitory concentration (IC50) determination assay, S. aureus. The settings on record: Iso-Sensitest broth, growth by OD 600 nm over 16 h; <0.098 = detection limit. Type of series: cell-based. Put shortly: as §1
In another series the test system is A. baumannii (ATCC17978). Kind of series: 50% growth inhibitory concentration (IC50) determination assay, A. baumannii. Type of series: cell-based. The settings on record: Iso-Sensitest broth, growth by OD 600 nm over 16 h; <0.098 = detection limit. Summed up: as §1

As to “7-(5-cyano-4-(cis-(4R)-4 (dimethylamino)-3,3a,4,5,6,6a-hexahydro-1H-cyclopenta[c]pyrrol-2-yl)-6-fluoro-8-(methylamino)-9H-pyrido[2,3-b]indol-3-yl)-4-oxo-4H-quinolizine-3-carboxylic acid [Example 1.12]”, the “MIC S9” value in series [1] worked out at 0.541. Also, in series [1] (A. baumannii ATCC 19606), the “MIC S1” value was found to be 1.082. Besides, in series [1] (A. baumannii ATCC 51432), the “MIC S2” value is 0.541. The “MIC S3” value in series [1] (A. baumannii ATCC BAA-747) came out at 0.541. In series [1] (E. coli ATCC 25922), the “MIC S11” value was 0.203. The “MIC S10” value in series [1] (E. coli ATCC BAA-2340) was 0.541. In addition, the “MIC S4” value in series [1] (K. pneumoniae ATCC 10031) was 0.068. In addition, the “MIC S5” value in series [1] (K. pneumoniae ATCC 700603) was 2.168. Further, the “MIC S6” value in series [1] (K. pneumoniae ATCC BAA-2146) is 4.335. Besides, in series [1] (P. aeruginosa ATCC 27853), the “MIC S7” value is reported as 1.082. Also, in series [1] (P. aeruginosa ATCC BAA-2113), the “MIC S8” value amounted to 2.168. In addition, the CC50 – broadly, the concentration giving 50% cytotoxicity – with HepG2 cells was above 100 µM. Further, the IC50 (in series [2]; with S. aureus (ATCC29213); in the series with A. baumannii (ATCC17978)) was below 0.098 µM throughout.
